“Also recorded” adds a separate entry of the source.
Experiments:
[1] = Stability after steam stripping by NMR and XRD; format: physicochemical; details: 1H-NMR and XRD versus synthesized / conventionally regenerated sample
Procedure: Infrared sensors for CO2 concentration measurements in the inlet and outlet gas streams were used. For gas sample measurements, the exhaust gas passed through a water trap and hydrophobic filter (CM-0118) prior to reaching the sensor to avoid excess water. A total inorganic carbon analyzer containing an acidification module and a CO2 coulometer module was used to determine inorganic carbon content in solid samples. Air at 100 mL/min was used as a carrier gas, and calculations were based on sample weight. A 1 M Na2CO3 solution was used as a standard. Solid samples (40-60 mg) were weighed out into small Teflon cups, and the entire cup was transferred into a 15-mL sample flask. A volume of 5 mL of 2 M HCl acid was dispensed to acidify each sample. Solid samples were analyzed in duplicates. X-ray diffraction (XRD) measurements were conducted using an X-ray diffraction system equipped with a solid-state detector. For the XRD measurements, X-rays were generated at 45 kV/40 mA, and the X-ray beam wavelength was λ=1.5406 A (Cu Kα radiation). Nuclear magnetic resonance (NMR) measurements were performed to quantify solvent degradation after regeneration. The 1D spectra were recorded on a 400 MHz NMR spectrometer equipped with a 5 mm BBI or BBO probe. A residual solvent peak was used as an internal reference (DMSO-d6: 2.50 ppm). […]

[2] = total regeneration energy; cited from earlier work
[3] = Aqueous solubility of regenerated sorbent; format: physicochemical; details: free base

| Compound | chemical stability after direct steam regeneration [1] | regeneration energy [2] | aqueous solubility [3] |
| --- | --- | --- | --- |
| N=C(N)NN=CC=NNC(=N)N [GBIG, glyoxal-bis(iminoguanidine)] | no chemical degradation occurred | – | – |
| N=C(N)N/N=C/C=N/NC(=N)N [GBIG-C, GBIG carbonate] | – | 3.4 kJ/g-CO2 | – |
| CC(/C=N/NC(=N)N)=N\NC(=N)N [MGBIG, methylglyoxal-bis(iminoguanidine)] | no chemical degradation occurred | – | completely dissolved in water; also recorded: high aqueous solubility |
| CC(/C=N/NC(=N)N)=N\NC(=N)N [MGBIG-C, methylglyoxal-bis(iminoguanidine) (MGBIG) carbonate] | – | 7.0-10.2 kJ/g-CO2 | – |
